# US20050208496A1, “Methods of testing for bronchial asthma or chronic obstructive pulmonary disease” (Genox Research, Inc., priority 2002, published 2005)
# Read-outs that look alike come from different tables or passages of the source.
# Tested on: respiratory epithelial cells
# [1] = IL-13 vs no stimulation, lot 2 Day 3 AI
# [2] = IL-13 vs no stimulation, lot 2 Day 7 AI
substance,measurement,setting,value
"IL-13: human IL-13 (Peprotech, Inc.) added to the medium at 50 ng/mL to stimulate respiratory epithelial cells",IGFBP6 (1736_at) expression change,[1],−4.7
same,LOH11CR2A (38151_at) expression change,[1],−3.2
same,MMP9 (31859_at) expression change,[1],−18
same,MMP10 (1006_at) expression change,[1],−30.3
same,MSMB (32149_at) expression change,[1],−21.3
same,NDRG1 (36933_at) expression change,[1],−2.9
same,NOTCH3 (38750_at) expression change,[1],−4.5
same,PFTK1 (36502_at) expression change,[1],−2.3
same,PSCA (33792_at) expression change,[1],−4.9
same,PTK2B (33804_at) expression change,[1],−3.7
same,PTPRZ1 (1364_at) expression change,[1],−4.3
same,RARRES1 (1042_at) expression change,[1],−3.1
same,RARRES1 (33505_at) expression change,[1],−3.5
same,RDC1 (34288_at) expression change,[1],−3.7
same,RTP801 (39827_at) expression change,[1],−2.3
same,S100A8 (41096_at) expression change,[1],−3
same,SEC14L2 (32817_at) expression change,[1],−6.9
same,SERPINA3 (33825_at) expression change,[1],−7
same,SERPINE1 (672_at) expression change,[1],−62.1
same,SERPINE1 (38125_at) expression change,[1],−11.2
same,STK39 (39120_at) expression change,[1],−2.6
same,TSPAN-5 (40990_at) expression change,[1],−3.2
same,VRP (38223_at) expression change,[1],−2
same,c-fos (1915_s_at) expression change,[1],−2
same,c-fos (1916_s_at) expression change,[1],−3.1
same,AGR2 (38827_at) expression change,[2],−3.7
same,AKR1B10 (37482_at) expression change,[2],−9.7
same,AKR1C3 (37399_at) expression change,[2],−2.8
same,ANXA10 (32349_at) expression change,[2],−18.9
same,APM2 (32527_at) expression change,[2],−3.3
same,BCAS1 (37821_at) expression change,[2],−13.2
same,BDKRB2 (39310_at) expression change,[2],−4.2
same,BENE (33331_at) expression change,[2],−8.5
same,C4.4A (41641_at) expression change,[2],−6.8
same,CRA (1230_g_at) expression change,[2],−3
same,CTSL2 (40717_at) expression change,[2],−5.6
same,DEFB2 (32464_at) expression change,[2],−2.6
same,ECM1 (37600_at) expression change,[2],−11
same,EPHA1 (1108_s_at) expression change,[2],−3.6
same,ETFB (36881_at) expression change,[2],−3.4
same,FABP5 (39799_at) expression change,[2],−3
same,GABRE (34280_at) expression change,[2],−3.2
same,HLA-DPB1 (38095_i_at) expression change,[2],−2.5
same,HLA-DPB1 (38096_f_at) expression change,[2],−3.3
same,IGFBP6 (1736_at) expression change,[2],−7.2
same,IMPA2 (36496_at) expression change,[2],−2.7
same,MMP9 (31859_at) expression change,[2],−113.5
same,MMP10 (1006_at) expression change,[2],−35.2
same,MN1 (37283_at) expression change,[2],−7.3
same,MSMB (32149_at) expression change,[2],−8.1
same,NCALD (38803_at) expression change,[2],−4.2
same,NOTCH3 (38750_at) expression change,[2],−3.5
same,PFTK1 (36502_at) expression change,[2],−3.5
same,PSCA (33792_at) expression change,[2],−9.2
same,PTK2B (33804_at) expression change,[2],−3.5
same,PTPRZ1 (1364_at) expression change,[2],−14.9
same,RARRES1 (1042_at) expression change,[2],−2.4
same,RARRES1 (33505_at) expression change,[2],−3.4
same,RDC1 (34288_at) expression change,[2],−3
same,RTP801 (39827_at) expression change,[2],−2.4
same,S100A8 (41096_at) expression change,[2],−6.1
same,SERPINA3 (33825_at) expression change,[2],−9.3
same,SERPINB1 (33305_at) expression change,[2],−2.9
same,SERPINB5 (862_at) expression change,[2],−2.2
same,SERPINE1 (672_at) expression change,[2],−34.4
same,SERPINE1 (38125_at) expression change,[2],−11
same,STK39 (39120_at) expression change,[2],−2.3
same,TSPAN-5 (40990_at) expression change,[2],−6
same,VRP (38223_at) expression change,[2],−2.4
same,c-fos (1915_s_at) expression change,[2],−2.3
same,c-fos (1916_s_at) expression change,[2],−3.6
same,"pendrin gene expression level, factor of increase in response to IL-13 stimulation","IMM method, day 3 and day 7, both Lots 1 and 2",≥ 20
same,"pendrin gene (36376_at, AF030880) expression fold change upon IL-13 stimulation, HG-U95A chip","Lot 2, Day 3, AI",118.3
same,"pendrin gene (36376_at, AF030880) expression fold change upon IL-13 stimulation, HG-U95A chip","Lot 2, Day 7, AI",58.2
same,AA149682 (51925_at) expression fold change,"lot 1, Day 3, AI method",2.9 fold
same,AA420479 (52539_at) expression fold change,"lot 1, Day 3, AI method",3.8 fold
same,AA541787 (52622_at) expression fold change,"lot 1, Day 3, AI method",3.3 fold
same,AA582926 (52307_at) expression fold change,"lot 1, Day 3, AI method",2.4 fold
same,"ACP5 (677_s_at) expression, fold change upon IL-13 stimulation","lot 1, Day 3, AI method",−2.8 fold
same,"ADAM8 (40712_at) expression, fold change upon IL-13 stimulation","lot 1, Day 3, AI method",5.8 fold
same,"ADAM28 (35479_at) expression, fold change upon IL-13 stimulation","lot 1, Day 3, AI method",9 fold
same,AI310524 (47087_at) expression fold change,"lot 1, Day 3, AI method",3.6 fold
same,AI565105 (54886_at) expression fold change,"lot 1, Day 3, AI method",2.8 fold
same,AI659927 (54033_at) expression fold change,"lot 1, Day 3, AI method",4.2 fold
same,AI718385 (53061_at) expression fold change,"lot 1, Day 3, AI method",4.6 fold
same,AI809925 (53010_at) expression fold change,"lot 1, Day 3, AI method",3.1 fold
same,AI989346 (52327_s_at) expression fold change,"lot 1, Day 3, AI method",2.9 fold
same,"AKAP2 (35985_at) expression, fold change upon IL-13 stimulation","lot 1, Day 3, AI method",6 fold
same,AKAP2 (48035_at) expression fold change,"lot 1, Day 3, AI method",6.6 fold
same,"ALOX15 (34636_at) expression, fold change upon IL-13 stimulation","lot 1, Day 3, AI method",47.8 fold
same,BAL (52167_at) expression fold change,"lot 1, Day 3, AI method",3.5 fold
same,BRCA1 (626_s_at) expression fold change,"lot 1, Day 3, AI method",9.1 fold
same,"BST2 (39061_at) expression, fold change upon IL-13 stimulation","lot 1, Day 3, AI method",9.9 fold
same,"C1S (40496_at) expression, fold change upon IL-13 stimulation","lot 1, Day 3, AI method",3.3 fold
same,C21orf11 (58957_at) expression fold change,"lot 1, Day 3, AI method",6.6 fold
same,CCND3 (1794_at) expression fold change upon IL-13 stimulation,"lot 1, Day 3, AI method",2.2 fold
same,CCND3 (1795_g_at) expression fold change upon IL-13 stimulation,"lot 1, Day 3, AI method",2.2 fold
same,CD47 (37890_at) expression fold change,"lot 1, Day 3, AI method",2.1 fold
same,CDH6 (1620_at) expression fold change upon IL-13 stimulation,"lot 1, Day 3, AI method",4.3 fold
same,CDH6 (57421_at) expression fold change,"lot 1, Day 3, AI method",3.5 fold
same,CDH26 (46916_at) expression fold change,"lot 1, Day 3, AI method",8.9 fold
same,"CH25H (32363_at) expression, fold change upon IL-13 stimulation","lot 1, Day 3, AI method",9.9 fold
same,CLDN1 (46260_at) expression fold change,"lot 1, Day 3, AI method",2.4 fold
same,"CLDN4 (35276_at) expression, fold change upon IL-13 stimulation","lot 1, Day 3, AI method",2.3 fold
same,"CTSC (133_at) expression, fold change upon IL-13 stimulation","lot 1, Day 3, AI method",3.5 fold
same,CXCL16 (44095_at) expression fold change,"lot 1, Day 3, AI method",2.5 fold
